Here are results for one compound from article PMC10746708, “A small molecule iCDM-34 identified by in silico screening suppresses HBV DNA through activation of aryl hydrocarbon receptor” (Cell Death Discovery, 2023).

Series [1] concerns HBV-infected PXB cells. Kind of series: pgRNA and OAS1 mRNA by qPCR in HBV-infected PXB cells. It counts as cell-based, human. To be noted: 7 days. On the procedure: mRNA expression levels were measured by qPCR using specific primers or sets of specific primers and probe. RNA was reverse transcribed using PrimeScript RT Master Mix (Takara Bio, Shiga, Japan) to synthesize complementary DNA (cDNA). OAS1,glyceraldehyde 3-phosphate dehydrogenase (GAPDH), β-actin mRNA expression levels were measured using specific primers and TB Green Premix Ex Taq II (Takara Bio). AhR (Hs00169233_m), CDK1 (Hs00938777_m), CDK2 (Hs01548894_m) mRNA expression levels were measured using specific probe and primer sets (Thermo Fisher Scientific, Waltham, MA, USA) and Probe qPCR mix (Takara Bio) in a CFX96 Touch Real-Time PCR Detection System (Bio-Rad Laboratories, Hercules, CA, USA). The specific primers used in this study were OAS1 (forward primer: 5′-[…]-3′, reverse primer: 5′-[…]-3′), reverse primer: 5′-[…]-3′, and GAPDH (forward primer: 5′-[…]-3′, reverse primer: 5′-[…]-3′). β-actin (forward primer: forward primer: 5′-[…]-3′ and reverse primer: 5′-[…]-3′). Expression levels were determined using the 2^–ΔΔCt method and were normalized to endogenous β-actin mRNA expression levels.
PXB cells were plated on 96-well plate and infected with three genome equivalents per cell of HBV C_AT [33], and the medium was changed every 3 or 4 days. […]
A general note: Quantitative PCR measures a nucleic acid by following its amplification.

A further series deals with PXB cells. Kind of series: Cell viability of HBV-infected PXB cells (RealTime-Glo MT). It is filed as cell-based. Particulars: 3 and 30 µM, with or without 10 nM ETV, 7 days. On the procedure: (§1) PXB cells (primary cultured human hepatocytes) were purchased from PhoenixBio (Higashi-Hiroshima, Japan) and cultured on collagen type I-coated 96- or 24-well plates in hepatocyte clonal growth medium at 37 °C and 5 % CO2 as previously described. RealTime-Glo MT Cell Viability Assay (Promega) and XTT assay were performed according to a previously established protocol.

The subject of another series is HCV replicon cells. Kind of series: HCV replicon luciferase assay. Particulars: 0.05–30 µM, 3 days. It is filed as cell-based. On the procedure: HCV replicon cells were plated on clear and white 96-well plates (TPP, 92096 and Greiner Bio-one, 655083) in DMEM, high glucose, GlutaMAX Supplement (Thermo Fisher Scientific, Waltham, MA, USA) containing 10 % fetal bovine serum, penicillin, and streptomycin. After 1 day, the cells were treated with 0.05–30 µM of iCDM-17 and iCDM-34 for 3 days. The quantity of HCV replicons was measured by a luciferase assay using Steady-Glo Luciferase Assay System (Promega, Madison, WI, USA). The cell viability was measured by XTT assay using Cell proliferation kit II (Roche, Mannheim, Germany) according to the established protocol.
In general terms: A replicon is a self-replicating genome or part of one, used to study replication in cells.

The test system of another series is CDK1/2. Kind of series: CDK1/2 mRNA qPCR in HepG2-NTCP-C4 cells. Particulars: 30 μM. It is filed as cell-based, human. On the procedure: HepG2-NTCP-C4 cells were plated on a 96-well plate in DMEM/F12 and GlutaMAX Supplement (Thermo Fisher Scientific) containing 10% fetal bovine serum, 10 mM HEPES, 5 μg/ml insulin, […] hydrocortisone, 200 U/ml penicillin, and 200 μg/ml streptomycin. After 1 day, the cells were treated with 30 μM iCDM-17 and iCDM-34 for 3, 8, 24 h. Total RNA was purified form the cells using Agencourt RNA advance (Beckman Courter). cDNA was synthesized using PrimeScript RT master mix (Takara Bio). CDK1, CDK2, β-actin mRNA amount was quantified by qPCR.
mRNA expression levels were measured by qPCR using specific primers or sets of specific primers and probe. RNA was reverse transcribed using PrimeScript RT Master Mix (Takara Bio, Shiga, Japan) to synthesize complementary DNA (cDNA). OAS1,glyceraldehyde 3-phosphate dehydrogenase (GAPDH), β-actin mRNA expression levels were measured using specific primers and TB Green Premix Ex Taq II (Takara Bio). AhR (Hs00169233_m), CDK1 (Hs00938777_m), CDK2 (Hs01548894_m) mRNA expression levels were measured using specific probe and primer sets (Thermo Fisher Scientific, Waltham, MA, USA) and Probe qPCR mix (Takara Bio) in a CFX96 Touch Real-Time PCR Detection System (Bio-Rad Laboratories, Hercules, CA, USA). […] Expression levels were determined using the 2^–ΔΔCt method and were normalized to endogenous β-actin mRNA expression levels.

Series [2] concerns HBV-infected PXB cells. Kind of series: Microarray gene expression analysis of HBV-infected PXB cells. It counts as cell-based, human. On the procedure:
PXB cells cultured in 24-well plates were infected with three genome equivalents per cell of HBV C_AT. After 24 days of infection, the cells were treated with 0.3 and 30 µM iCDM-34 and 1,000 IU/mL IFN-α (Sumitomo Dainippon Pharma, Osaka, Japan) for 7 days (n = 3). Total RNA was extracted from the treated cells and subjected to microarray analysis. The raw and normalized data were uploaded to NCBI Gene Expression Omnibus (GSE180646).
To explore the biological interpretation of the transcriptome data, the canonical pathways and upstream causal networks were identified using knowledge-based functional analysis software from Ingenuity Pathways Analysis (IPA; Ingenuity Systems, Redwood City, CA, USA). […] A statistical measure of the IPA analysis is the activation z-score, which can be used to identify likely regulating molecules based on a statistically significant pattern match of up- and downregulation, and to predict the activation state (either activated or inhibited) of a putative regulator [37]. An absolute value of z-score more than 2 was considered significant.

Series [3] has as its target interaction between HBx and DNA binding protein 1 (UniProt P03165+Q16531). Kind of series: HBx - DNA binding protein 1 interaction. To be noted: data not shown.
For series [4], the system named is HBV genotype C. Kind of series: Anti-HBV activity in HBV-infected PXB cells (HBV DNA by qPCR). It is filed as cell-based. The procedure: as §1
(§2) PXB cells were plated on 96-well plate and infected with three genome equivalents per cell of HBV C_AT [33], and the medium was changed every 3 or 4 days. […] After treatment with these compounds, cellular DNA, medium DNA, and total RNA were automatically purified as per our previously established protocol. RNA purification of total RNA from cultured cells in the 24-well plate was performed using the RNeasy Mini Kit (Qiagen, Germantown, MD, USA) according to the manufacturer’s instructions.
HBV DNA copy numbers were determined using TaqMan Gene Expression Master Mix (Thermo Fisher Scientific) or Probe qPCR Mix (Takara Bio), specific primers, and probes in a qPCR system (Light Cycler 96 System, Roche, Basel, Switzerland or CFX96 Touch Real-Time PCR Detection System, Bio-Rad Laboratories, Hercules, CA, USA). The specific primers and probe used for detection of HBV DNA were as follows: forward primer: 5′-[…]-3′, reverse primer: 5′-[…]-3′, and probe: 5′-[FAM] […][TAM]-3′.

In series [5] the test system is promoter of hypoxia inducible factor (HIF). More on the design: method as in PMID 34492592. To be noted: cited from earlier work.
The nature of series [6]: Metabolic analysis in vivo: blood concentration after injection. To be noted: PXB-mice (cDNA-uPA^wild/+/SCID), other: injection, human hepatocyte-chimeric mouse, blood at 5-480 min, n = 1, read-out: t1/2 in blood.
Series [7] relates to HBV genotype C. Kind of series: HBsAg and HBeAg in culture medium by ELISA. It counts as cell-based. Particulars: 30 µM, 7 days. On the procedure:
as §2
HBsAg and HBeAg levels in the cell culture medium were measured using Enzygnost HBsAg 6.0 and Enzygnost HBe monoclonal (Siemens, Munich, Germany), respectively, according to the manufacturer’s instructions.
For orientation: In an ELISA, binding on a coated surface is turned into a signal by an enzyme label.

Chain of interaction between HBx and DNA binding protein 1 (Q16531 whole entry): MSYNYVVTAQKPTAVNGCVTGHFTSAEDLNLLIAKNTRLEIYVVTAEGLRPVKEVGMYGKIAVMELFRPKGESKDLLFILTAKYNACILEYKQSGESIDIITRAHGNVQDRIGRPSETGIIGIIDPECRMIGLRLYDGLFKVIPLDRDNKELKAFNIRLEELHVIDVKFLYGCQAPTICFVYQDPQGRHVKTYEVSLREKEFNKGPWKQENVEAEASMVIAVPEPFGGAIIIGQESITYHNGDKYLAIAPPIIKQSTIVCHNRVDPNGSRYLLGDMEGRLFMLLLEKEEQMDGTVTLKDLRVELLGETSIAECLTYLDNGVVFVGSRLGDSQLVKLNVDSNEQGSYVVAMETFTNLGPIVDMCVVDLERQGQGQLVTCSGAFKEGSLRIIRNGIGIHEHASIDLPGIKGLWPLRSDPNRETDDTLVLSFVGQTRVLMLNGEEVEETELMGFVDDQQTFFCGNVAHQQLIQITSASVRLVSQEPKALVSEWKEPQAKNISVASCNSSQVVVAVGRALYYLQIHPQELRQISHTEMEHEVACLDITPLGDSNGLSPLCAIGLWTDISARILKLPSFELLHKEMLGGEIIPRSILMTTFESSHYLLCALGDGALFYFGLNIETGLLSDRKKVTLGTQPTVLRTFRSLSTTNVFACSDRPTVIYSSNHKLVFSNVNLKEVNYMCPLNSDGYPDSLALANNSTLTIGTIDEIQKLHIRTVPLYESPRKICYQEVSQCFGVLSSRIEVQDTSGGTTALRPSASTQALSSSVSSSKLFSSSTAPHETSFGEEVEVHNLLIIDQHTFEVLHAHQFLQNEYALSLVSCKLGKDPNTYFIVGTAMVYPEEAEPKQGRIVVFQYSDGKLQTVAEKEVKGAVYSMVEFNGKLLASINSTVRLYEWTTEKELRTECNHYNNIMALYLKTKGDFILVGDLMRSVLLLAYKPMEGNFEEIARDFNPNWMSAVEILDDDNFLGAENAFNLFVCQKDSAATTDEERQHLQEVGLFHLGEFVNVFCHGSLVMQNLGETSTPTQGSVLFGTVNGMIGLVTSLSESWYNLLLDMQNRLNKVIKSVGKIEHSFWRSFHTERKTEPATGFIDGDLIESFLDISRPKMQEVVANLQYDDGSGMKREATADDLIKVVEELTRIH
Chain of interaction between HBx and DNA binding protein 1 (P03165 whole entry): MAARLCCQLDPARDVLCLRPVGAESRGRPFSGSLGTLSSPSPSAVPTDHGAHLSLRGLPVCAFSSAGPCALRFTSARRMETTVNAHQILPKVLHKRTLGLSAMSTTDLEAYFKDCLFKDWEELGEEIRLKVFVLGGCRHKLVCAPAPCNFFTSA

For the compound `O=C(Nc1ccc(Br)cc1)c1ccn(Cn2cc([N+](=O)[O-])cn2)n1` [iCDM-34], the pgRNA expression level entry in the series on HBV-infected PXB cells [1] (30 µM) was “significantly decreased”. Besides, in the series on HBV-infected PXB cells [1] (0.0003–30 μM), the “expression of OAS1 (ISG)” value is on record as “no increase”. Also, in the series on PXB cells, the “cytotoxicity (cell viability)” value is reported as “no cytotoxicity”. In addition, in the series with HCV replicon cells, the “HCV replication (replicon luciferase)” value was “suppressed”. Also, the “CDK2 mRNA expression levels” value with CDK1/2 (after 3 and 8 h) is reported as “significantly suppressed”. Also, the “CDK1 mRNA levels” value in the series with CDK1/2 (after 8 and 24 h) is given as “significant suppression”. Also, in the series on HBV-infected PXB cells [2], the “expression of ADH1B, G6PC, ADH1A, TAT, SLC38A3, and SLC22A7” value is recorded as “suppressed”; the “expression of CYP1A1, CYP1A2, CYP4A11, CYP1B1, AKR1B15, and AKR1B10” value is reported as “upregulated”. In addition, in series [3], the “inhibition of interaction between HBx and DNA binding protein 1” value is “did not inhibit”. Also, the “medium HBV DNA” value in the series on HBV genotype C [4] (30 µM, 7 days) is listed as “inhibited”. The “effect of combination with ETV on cellular HBV DNA” value in the series with HBV genotype C [4] (3 and 30 µM with 10 nM ETV, 7 days) is on record as “additive effects”. Moreover, the “cellular HBV DNA” value in the series on HBV genotype C [4] (3 and 30 µM, 7 days, dose-dependent) was “decreased”. Also, the IC50 in the series on HBV genotype C [4] (Hepatitis B virus, 168 h, HBV genotype C-infected PXB cells, 0.03–100 µM for 7 days, qPCR, read-out: half maximal inhibitory concentration, cellular HBV DNA) stood at 19.7 µM. The “suppression of HIF promoter” value in series [5] is “suppress”. For the same compound, the half-life in series [6] was 23 min. In the series with HBV genotype C [7], the HBeAg in medium entry was “inhibited” and the HBsAg in medium result was “inhibited”.
